Key:
293T cells = experiment: Biological function (phenotype, mobile cells) of androstene hormone treatments in 293T cells; type: cell-based, human; conditions: androstene hormone 25 μM
Method: A non-toxic vehicle for administration of androstene hormones according to embodiments of the present invention was prepared from a first solution and a second solution. The first solution, comprising liposomal formulation, was placed in PEG 300 to a concentration of 5% and heated in a sonicating water bath to about 45° C. The second solution, comprising a selected hormone (one or more of 5Δ-androsten-3β, 17α-diol, 5Δ-androsten-3β, 17β-diol, or 5Δ-androsten-3β,7β,17β-triol), was placed in PEG 300 and heated in a sonicating water bath to about 45° C. The first and second solutions were then combine and stirred until dissolved.
Biological function was tested in 293T cells, which is a human embryonic cell line transformed with Large T antigen […] SV40. This hypotriploid (polyploid) cell line is particularly useful in such transformation studies and has very distinct phenotypes when grown. All androstene hormone treatment applications were at concentrations of 25 μM.

[1] = system: MDA-MB-231 breast cancer cell; experiment: Cell death in hormone independent ER/PR negative breast cancer cell cultures; type: cell-based; conditions: 25 μM β-AED, 25 μM β-AET, 5 nM E2; PEG 300 with LIPOFECTAMINE vehicle
Method: (§1) Hormone dependent, noninvasive, epithelial phenotype (ER/PR positive MCF-7 breast cancer cells) and hormone independent, invasive, mesenchymal phenotype (ER/PR negative MDA-MB-231 breast cancer cell) cell suspensions were acquired and prepared in complete medium (DMEM/F12, 10% FBS, 1% penicillin/streptomycin (Gibco)). Cellular concentration was adjusted to 2×10^5 cells/mL.
(§2) Androstene hormone solutions according to embodiments of the present invention were prepared from a first solution and a second solution. For the first solution, 3.0 mg of β-AED or 3-AET was added to warm PEG 300 to prepare 50 mM stock. For the second solution, 10 μL of LIPOFECTAMINE (3:1 DOSPA:DOPE) was introduced to 100 μL of PEG 300, mixed, and incubated in a water bath at 42° C. for 30 min. The first and second solutions were then mixed in a sonicator water bath at 42° C. for 1 hr. The final concentration was 50 mM β-AED (or AET, as used).
(§3) A β-estradiol solution was also prepared by adding 2.7 mg of β-estradiol to 200 μL warmed PEG 300 with LIPOFECTAMINE and then further diluted 1:1000 with PEG-300. The final concentration was 50 μM.
A diluted β-AED (or 3-AET) solution was prepared with complete medium at a final concentration of 50 μM (1:1000 dilute of 50 mM). Likewise, a diluted β-E2 solution was prepared with complete medium at a final concentration of 10 nM (1:5000 dilute of 50 μM). […]

[2] = system: MCF-7 breast cancer cells; experiment: Cell death and cell growth in hormone dependent ER/PR positive breast cancer cell cultures; type: cell-based; conditions: 5 nM E2; for MCF7 Cell Death Amount: 25 μM β-AED, 25 μM β-AET, PEG 300 with LIPOFECTAMINE vehicle
Method: as §1, §2, §3
A diluted β-AED (or 3-AET) solution was prepared with complete medium at a final concentration of 50 μM (1:1000 dilute of 50 mM). Likewise, a diluted β-E2 solution was prepared with complete medium at a final concentration of 10 nM (1:5000 dilute of 50 μM).
Using a 24-well plate, mixtures of 0.5 mL of cells per well with 0.5 mL of medium diluted hormone vehicle. Cell cultures were maintained at 90% humidity, 7% CO2, and 37° C.

[3] = grown for 5 days, 25 μM androstene hormone, PEG 300 with 5% LIPOFECTAMINE

| Structure (SMILES) | Phenotype of 293T cells (cell islands, mobile cells, cell processes) (293T cells; vehicle PEG 300) | Phenotype of 293T cells (cell islands, mobile cells, cell processes) (293T cells; vehicle PEG 300 and LIPOFECTAMINE) | MDA-MB-231 Cell Death Amount [1] | MCF7 Cell Death Amount [2] | Cell growth / cell density of MCF-7 cells compared with vehicle (FIG. 14) [2, 3] | Particles / cell bodies produced by MCF-7 cells in response to treatment [2, 3] |
| --- | --- | --- | --- | --- | --- | --- |
| C[C@]12CC[C@H]3[C@@H](CC=C4C[C@@H](O)CC[C@@]43C)[C@@H]1CC[C@@H]2O [β-AED, androst-5-ene-3β, 17β-diol] | cell islands are larger and there is a significant reduction in mobile cells | drastic decrease in, or morphological change, in mobile elements | Not observed | Not observed | not as heath and there are areas of decreased density | small particles |
| C[C@]12CC[C@H]3[C@@H]([C@@H](O)C=C4C[C@@H](O)CC[C@@]43C)[C@@H]1CC[C@@H]2O [β-AET, 5-androstene-3β,7β, 17β-triol] |  |  | Not observed | Not observed |  |  |
